# Measurements from publication PMC9981504 (Journal of Biological Inorganic Chemistry, 2023).
# Target: T1, soybean lipoxygenase (Glycine max, UniProt P08170)
# T1 construct: gene LOX1.1
# Assay: UV enzyme assay at […] nm, % inhibition at […]
# Format: biochemical
# Conditions: read-out: LOX % 100 μM or IC50
# T1 sequence (P08170 whole entry): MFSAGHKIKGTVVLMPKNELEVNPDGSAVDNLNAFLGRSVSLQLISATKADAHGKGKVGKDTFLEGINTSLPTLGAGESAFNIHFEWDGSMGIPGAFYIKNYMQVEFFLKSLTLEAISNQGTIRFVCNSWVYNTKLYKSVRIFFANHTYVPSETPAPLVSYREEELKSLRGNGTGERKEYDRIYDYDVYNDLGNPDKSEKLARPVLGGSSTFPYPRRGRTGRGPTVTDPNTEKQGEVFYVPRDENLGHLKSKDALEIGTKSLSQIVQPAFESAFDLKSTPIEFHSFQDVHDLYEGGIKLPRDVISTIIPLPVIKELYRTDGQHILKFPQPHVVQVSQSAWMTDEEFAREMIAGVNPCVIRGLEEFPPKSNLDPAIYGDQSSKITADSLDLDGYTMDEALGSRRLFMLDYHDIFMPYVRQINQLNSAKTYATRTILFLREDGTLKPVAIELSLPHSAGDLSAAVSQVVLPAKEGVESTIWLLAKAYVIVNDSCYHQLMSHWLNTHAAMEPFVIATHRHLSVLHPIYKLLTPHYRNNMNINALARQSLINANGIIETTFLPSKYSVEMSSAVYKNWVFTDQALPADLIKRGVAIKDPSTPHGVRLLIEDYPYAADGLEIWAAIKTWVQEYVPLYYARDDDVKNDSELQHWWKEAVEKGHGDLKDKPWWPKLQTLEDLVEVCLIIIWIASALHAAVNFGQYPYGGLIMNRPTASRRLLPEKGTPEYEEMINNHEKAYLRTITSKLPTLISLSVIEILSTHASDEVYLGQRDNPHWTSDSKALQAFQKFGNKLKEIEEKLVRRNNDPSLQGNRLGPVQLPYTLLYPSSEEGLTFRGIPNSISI
smiles,measurement,value
"O=c1c(O)c(-c2ccc(O)cc2)oc2cc(O)ccc12 [resokaempferol, 3,7,4΄-trihydroxyflavone]",inhibition at 100 µM,90%
